# Source: article PMC11766273, “Design, Synthesis, Anticancer Screening, and Mechanistic Study of Spiro-N-(4-sulfamoyl-phenyl)-1,3,4-thiadiazole-2-carboxamide Derivatives” (International Journal of Molecular Sciences, 2025)
# Experiments:
# [1] = molecular target: hCA IX (Homo sapiens, UniProt Q16790); set-up: method as in PMID 35671645, PMID 37577088, PMID 30978604, PMID 37776683; details: printed in Figure 1 for reported compounds; cited from earlier work
# [2] = molecular target: hCA XII (Homo sapiens, UniProt O43570); set-up: method as in PMID 35671645, PMID 37577088, PMID 30978604, PMID 37776683; details: printed in Figure 1 for reported compounds; cited from earlier work
# [3] = test system: renal RXF393 cell line; experiment: Apoptosis assay (Annexin V-FITC/PI); type: cell-based, human; details: RXF393 treated at IC50
# [4] = in vitro; details: human, WI 38 normal cells
# Description: (§1) The growth percentage was calculated at different drug concentration
# levels and at different times.
# (§2) and WI 38 cell lines was determined utilizing established MTT test procedures.
# (§3) All cell lines utilized were acquired from the Vacsera Cell Culture Library, Tissue
# (§4) Culture Unit, Cairo, Egypt, with ATCC provenance.
# (§5) concentrations that inhibited 50% of cell growth were tested three times, and the mean
# (§6) was computed. Cells were grown in DMEM (Invitrogen/Life Technologies) augmented
# (§7) with 10% FBS (Hyclone), 10 mg/ml of insulin (Sigma), and 1% penicillin-streptomycin.
# (§8) Seed cells (density 1.2–1.8×10,000 cells/well) in 100 mL of complete growth medium and
# (§9) 100 mL of the tested chemical per well in a 96-well plate for 24 h before the MTT testing.
# (§10) In a standard experiment, 100 mL of serially diluted sterile testing substances were
# (§11) introduced to achieve final concentrations ranging from 0.01 to 100 mM, utilizing
# (§12) growth media as a negative control. Following 24 h of culture incubation, the
# (§13) supernatants were discarded. The LOX IMVI, HT29, and RXF393 cell lines were
# (§14) subjected to trypsinization and rinsed with calcium/magnesium-free PBS (pH 7.2). We
# (§15) transferred cultures from the incubator to a laminar flow hood or sterile workspace.
# (§16) Each test must incorporate a blank, providing complete media
# (§17) balanced salt solution devoid of phenol red and serum. Incorporate reconstituted MTT
# (§18) at a volume constituting 10% of the culture medium—re-incubate cultures for 2 to 4 h,
# (§19) contingent upon cell type and optimal cell density. Upon completion of the incubation
# (§20) period, the cultures from the incubator are extracted, and the resultant formazan
# (§21) crystals are dissolved by adding an equivalent volume of MTT Solubilization Solution
# Absorbance was spectrophotometrically
# (§22) measured at a wavelength of 570 nm. Quantify the background absorbance of multi-
# (§23) well plates at 690 nm and deduct this value from the data at 450 nm. Data from all
# (§24) experiments were documented, and the viability percentage of cells was computed.
# [5] = test system: renal RXF393 cancer cell line; experiment: MTT cell viability assay; details: for % viability: rxf393
# Description: as §1
# levels and at different times.
# as §2, §3, §4, §5, §6, §7, §8, §9, §10, §11, §12, §13, §14, §15, §16, §17, §18, §19, §20, §21
# Absorbance was spectrophotometrically
# as §22, §23, §24
# [6] = test system: colon HT29 cancer cell line; experiment: MTT cell viability assay
# Description: as §1
# levels and at different times.
# as §2, §3, §4, §5, §6, §7, §8, §9, §10, §11, §12, §13, §14, §15, §16, §17, §18, §19, §20, §21
# Absorbance was spectrophotometrically
# as §22, §23, §24
# [7] = test system: melanoma LOX IMVI cancer cell line; experiment: MTT cell viability assay; details: for % viability: LOXIMVI
# Description: as §1
# levels and at different times.
# as §2, §3, §4, §5, §6, §7, §8, §9, §10, §11, §12, §13, §14, §15, §16, §17, §18, §19, §20, §21
# Absorbance was spectrophotometrically
# as §22, §23, §24
# [8] = test system: RXF393 cells; experiment: Cell cycle analysis (propidium iodide flow cytometry); details: RXF393 treated at IC50
# Description: The impact of the target compound on cell cycle progression in the RXF393 cancer cell line was evaluated against doxorubicin as a positive control and untreated RXF393 as a negative control, utilizing a flow cytometry assay.
# was assessed utilizing the Propidium Iodide Flow Cytometry Kit to quantify DNA
# content following established protocols.
# RXF393 cells were treated with the IC50 concentration of the target compound
# hCA XII, sequence (O43570 25-354): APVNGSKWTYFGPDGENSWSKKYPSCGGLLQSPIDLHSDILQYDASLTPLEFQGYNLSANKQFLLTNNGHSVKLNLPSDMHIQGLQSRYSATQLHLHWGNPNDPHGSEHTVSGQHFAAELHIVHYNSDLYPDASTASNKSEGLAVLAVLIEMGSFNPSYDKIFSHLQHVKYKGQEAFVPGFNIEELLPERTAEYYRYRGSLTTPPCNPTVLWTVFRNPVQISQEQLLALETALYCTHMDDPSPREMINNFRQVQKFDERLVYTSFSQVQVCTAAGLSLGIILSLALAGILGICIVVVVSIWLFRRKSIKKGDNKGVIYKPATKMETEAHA
smiles,measurement,setting,value
NS(=O)(=O)c1ccc(NC(=O)Nc2ncc(-c3ccc(F)cc3)s2)cc1 [Compound I],Ki,[1],13.6 nM
same,Ki,[2],27.6 nM
"COc1cccc2c1C(=O)c1c(O)c3c(c(O)c1C2=O)C[C@@](O)(C(=O)CO)C[C@@H]3O[C@H]1C[C@H](N)[C@H](O)[C@H](C)O1 [Doxorubicin, doxorubicin, reference compound]",Apoptosis Late,[3]; DMSO control 0.18,17.36%
same,Apoptosis Early,[3]; DMSO control 0.42,12.64%
same,Necrosis,[3]; DMSO control 1.16,9.02%
same,IC50 at 24 h,[4],18.1 ± 0.59 µM
same,"viability at 24 h, 0.4 µM",[4],74.5%
same,"viability at 24 h, 1.6 µM",[4],63.2%
same,"viability at 24 h, 6.3 µM",[4],52.4%
same,"viability at 24 h, 25 µM",[4],46.6%
same,"viability at 24 h, 100 µM",[4],38.4%
same,IC50,"[5]; RXF393, MTT",13.5 ± 0.82 µM
same,Cytotoxicity IC50 SD,"[5]; RXF 393, Table S2",13.54 ± 0.82 µg/mL
same,% viability,"[5]; 0.4ug, MTT",78.52%
same,% viability,"[5]; 1.6ug, MTT",69.673%
same,% viability,"[5]; 6.25ug, MTT",54.451%
same,% viability,"[5]; 25ug, MTT",43.883%
same,% viability,"[5]; 100ug, MTT",34.98%
same,IC50,[6]; HT29,13.5 ± 0.71 µM
same,% viability,"[6]; HT-29, 0.4uM",79.36%
same,% viability,"[6]; HT-29, 1.6uM",68.43%
same,% viability,"[6]; HT-29, 6.3uM",57.377%
same,% viability,"[6]; HT-29, 25uM",45.5981%
same,% viability,"[6]; HT-29, 100uM",31.937%
same,IC50,[7]; LOX IMVI,6.08 ± 0.32 µM
same,% viability,[7]; 0.4uM,69.98%
same,% viability,[7]; 1.6uM,58.61%
same,% viability,[7]; 6.3uM,49.41%
same,% viability,[7]; 25uM,41.5165%
same,% viability,[7]; 100uM,29.521%
same,DNA Content %G2/M,[8]; DMSO control 19.51,11.01%
same,DNA Content %S,[8]; DMSO control 28.54,16.81%
same,DNA Content %G0-G1,[8]; DMSO control 51.95,72.18%
